# Data taken from US12281122B1, “PI3K inhibitors” (Cogent Biosciences, Inc., priority 2023, dated 2025).
# Legend:
# [1] = test system: T47D (PI3Kα-H1047R) cell line; test: HTRF phospho-AKT(S473) cell assay in T47D cells; format: cell-based, human
# Procedure, shortened: (§1)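 Cells plated overnight (T47D in RPMI/10% FBS/0.2 units/mL insulin; SKBR3 in McCoy's 5A/10% FBS), then given 12-point 1:3 compound series (top 5 μM T47D, 10 μM SKBR3; ≤0.5% DMSO) for 2 h at 37° C. SKBR3 stimulated with 70 ng/ml PDGF-BB for final 15 min. Lysate pAKT(S473) by HTRF; IC50 calculated.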
# [2] = test system: SKBR3 (PI3Kα-Wild Type) cell line; test: HTRF phospho-AKT(S473) cell assay in SKBR3 cells; format: cell-based, human
# Procedure, shortened: as §1
# [3] = Homo sapiens; HTRF phospho-AKT(S473), T47D (PI3Kα-H1047R) cells, 2 hours compound incubation
# [4] = Homo sapiens, SK-BR-3; HTRF phospho-AKT(S473), SKBR3 (PI3Kα-Wild Type) cells, 2 hours compound incubation, PDGF-BB stimulated
# [5] = Homo sapiens; T47D (PI3Kα-H1047R) cells, HTRF phospho-AKT(S473), 2 hours compound incubation
# [6] = Homo sapiens, SK-BR-3; SKBR3 (PI3Kα-Wild Type) cells, HTRF phospho-AKT(S473), 2 hours compound incubation, PDGF-BB stimulated
"IC50 [1, 3]","IC50 [2, 4]","IC50 [1, 5]","IC50 [2, 6]",Structure (SMILES)
250 to 500 nM,≥ 5000 nM,–,–,"Cc1cc([C@@H](C)Nc2ccc(Cl)nc2C(=O)NS(C)(=O)=O)c2nc(-c3ccc(-c4ncc(C#N)cc4C)c(F)c3)n(C)c(=O)c2c1 [Compound 799, (R)-6-chloro-3-((1-(2-(4-(5-cyano-3-methylpyridin-2-yl)-3-fluorophenyl)-3,6-dimethyl-4-oxo-3,4-dihydroquinazolin-8-yl)ethyl)amino)-N-(methylsulfonyl) picolinamide]"
250 to 500 nM,≥ 5000 nM,–,–,"Cc1cc([C@@H](C)Nc2ccc(Cl)nc2C(=O)NS(C)(=O)=O)c2nc(N3CCC(C)(c4cc[nH]n4)CC3)n(C)c(=O)c2c1 [Compound 552, (R)-6-chloro-3-((1-(3,6-dimethyl-2-(4-methyl-4-(1H-pyrazol-3-yl)piperidin-1-yl)-4-oxo-3,4-dihydroquinazolin-8-yl)ethyl)amino)-N-(methylsulfonyl) picolinamide]"
250 to 500 nM,1000 to 5000 nM,–,–,"Cc1cc([C@@H](C)Nc2ccc(Cl)nc2C(=O)NS(C)(=O)=O)c2nc(N3CCC[C@H](c4cnc(C)c(C#N)c4)C3)n(C)c(=O)c2c1 (relative stereo) [Compound 615, 6-chloro-3-(((R)-1-(2-((R*)-3-(5-cyano-6-methylpyridin-3-yl)piperidin-1-yl)-3,6-dimethyl-4-oxo-3,4-dihydroquinazolin-8-yl)ethyl)amino)-N-(methylsulfonyl) picolinamide]"
< 250 nM,≥ 5000 nM,–,–,"COCCn1ncc(F)c1C1CCN(c2nc3c([C@@H](C)Nc4ccc(Cl)nc4C(=O)NS(C)(=O)=O)cc(C)cc3c(=O)n2C)CC1 [Compound 472, (R)-6-chloro-3-((1-(2-(4-(4-fluoro-1-(2-methoxyethyl)-1H-pyrazol-5-yl)piperidin-1-yl)-3,6-dimethyl-4-oxo-3,4-dihydroquinazolin-8-yl)ethyl)amino)-N-(methylsulfonyl) picolinamide]"
–,–,< 250 nM,1000 to 5000 nM,"Cc1cc([C@@H](C)Nc2ccc(Cl)nc2C(=O)NS(C)(=O)=O)c2nc(N3CCC(c4cn[nH]c4)CC3)n(C)c(=O)c2c1 [Compound 167, (R)-3-((1-(2-(4-(1H-pyrazol-4-yl)piperidin-1-yl)-3,6-dimethyl-4-oxo-3,4-dihydroquinazolin-8-yl)ethyl)amino)-6-chloro-N-(methylsulfonyl) picolinamide]"
250 to 500 nM,1000 to 5000 nM,–,–,"Cc1cc([C@@H](C)Nc2ccc(Cl)nc2C(=O)NS(C)(=O)=O)c2nc(N3C[C@@H]4[C@H](C3)[C@H]4n3cnc(C)n3)n(C)c(=O)c2c1 [Compound 566, 6-chloro-3-(((R)-1-(3,6-dimethyl-2-((1R,5S,6S)-6-(3-methyl-1H-1,2,4-triazol-1-yl)-3-azabicyclo[3.1.0]hexan-3-yl)-4-oxo-3,4-dihydroquinazolin-8-yl)ethyl)amino)-N-(methylsulfonyl) picolinamide]"
500 to 1000 nM,≥ 5000 nM,–,–,"Cc1cc([C@@H](C)Nc2ccc(Cl)nc2C(=O)NS(C)(=O)=O)c2nc(N3Cc4cnn(CC(F)(F)F)c4C3)n(C3CC3)c(=O)c2c1 [Compound 736, (R)-6-chloro-3-((1-(3-cyclopropyl-6-methyl-4-oxo-2-(1-(2,2,2-trifluoroethyl)-4,6-dihydropyrrolo[3,4-c]pyrazol-5(1H)-yl)-3,4-dihydroquinazolin-8-yl)ethyl)amino)-N-(methylsulfonyl) picolinamide]"
–,–,< 250 nM,1000 to 5000 nM,"Cc1cc([C@@H](C)Nc2ccc(Cl)nc2C(=O)NS(C)(=O)=O)c2nc(N3CCC[C@@H](c4cncc(C#N)c4)C3)n(C)c(=O)c2c1 (relative stereo) [Compound 263, 6-chloro-3-(((R)-1-(2-((R*)-3-(5-cyanopyridin-3-yl)piperidin-1-yl)-3,6-dimethyl-4-oxo-3,4-dihydroquinazolin-8-yl)ethyl)amino)-N-(methylsulfonyl) picolinamide]"
250 to 500 nM,≥ 5000 nM,–,–,"Cc1cc([C@@H](C)Nc2ccc(Cl)nc2C(=O)NS(C)(=O)=O)c2nc(N3CCC(c4nn(C5CC5)cc4F)CC3)n(C)c(=O)c2c1 [Compound 505, (R)-6-chloro-3-((1-(2-(4-(1-cyclopropyl-4-fluoro-1H-pyrazol-3-yl)piperidin-1-yl)-3,6-dimethyl-4-oxo-3,4-dihydroquinazolin-8-yl)ethyl)amino)-N-(methylsulfonyl) picolinamide]"
–,–,< 250 nM,1000 to 5000 nM,"Cc1cc([C@@H](C)Nc2ccc(Cl)nc2C(=O)NS(C)(=O)=O)c2nc(N3CCc4nocc4C3)n(C)c(=O)c2c1 [Compound 332, (R)-6-chloro-3-((1-(2-(6,7-dihydroisoxazolo[4,3-c]pyridin-5(4H)-yl)-3,6-dimethyl-4-oxo-3,4-dihydroquinazolin-8-yl)ethyl)amino)-N-(methylsulfonyl) picolinamide]"
500 to 1000 nM,≥ 5000 nM,–,–,"Cc1cc([C@@H](C)Nc2ccc(Cl)nc2C(=O)NS(C)(=O)=O)c2nc(-c3cccc(Cl)c3Cl)n(C)c(=O)c2c1 [Compound 777, (R)-6-chloro-3-((1-(2-(2,3-dichlorophenyl)-3,6-dimethyl-4-oxo-3,4-dihydroquinazolin-8-yl)ethyl)amino)-N-(methylsulfonyl) picolinamide]"
< 250 nM,1000 to 5000 nM,–,–,"CC(=O)N1CCC(c2ccc(-c3nc4c([C@@H](C)Nc5ccc(Cl)nc5C(=O)NS(C)(=O)=O)cc(C)cc4c(=O)n3C)cc2)CC1 [Compound 782, (R)-3-((1-(2-(4-(1-acetylpiperidin-4-yl)phenyl)-3,6-dimethyl-4-oxo-3,4-dihydroquinazolin-8-yl)ethyl)amino)-6-chloro-N-(methylsulfonyl) picolinamide]"
–,–,< 250 nM,1000 to 5000 nM,"Cc1cc([C@@H](C)Nc2ccc(Cl)nc2C(=O)NS(C)(=O)=O)c2nc(N3Cc4cn(C5COC5)nc4C3)n(C)c(=O)c2c1 [Compound 290, (R)-6-chloro-3-((1-(3,6-dimethyl-2-(2-(oxetan-3-yl)-2,6-dihydropyrrolo[3,4-c]pyrazol-5(4H)-yl)-4-oxo-3,4-dihydroquinazolin-8-yl)ethyl)amino)-N-(methylsulfonyl) picolinamide]"
< 250 nM,1000 to 5000 nM,–,–,"Cc1ccn(C2CCN(c3nc4c([C@@H](C)Nc5ccc(Cl)nc5C(=O)NS(C)(=O)=O)cc(C)cc4c(=O)n3C)CC2)c(=O)c1 [Compound 753, (R)-6-chloro-3-((1-(3,6-dimethyl-2-(4-(4-methyl-2-oxopyridin-1(2H)-yl)piperidin-1-yl)-4-oxo-3,4-dihydroquinazolin-8-yl)ethyl)amino)-N-(methylsulfonyl) picolinamide]"
–,–,< 250 nM,1000 to 5000 nM,"Cc1cc([C@@H](C)Nc2ccc(Cl)nc2C(=O)NS(C)(=O)=O)c2nc(N3CCC[C@H](C#N)C3)n(C)c(=O)c2c1 [Compound 209, 6-chloro-3-(((R)-1-(2-((S)-3-cyanopiperidin-1-yl)-3,6-dimethyl-4-oxo-3,4-dihydroquinazolin-8-yl)ethyl)amino)-N-(methylsulfonyl) picolinamide]"

Structure (SMILES),"IC50 [1, 3]","IC50 [2, 4]","IC50 [1, 5]","IC50 [2, 6]"
"Cc1cc([C@@H](C)Nc2ccc(Cl)nc2C(=O)NS(C)(=O)=O)c2nc(N3[C@@H]4CC[C@H]3C[C@@H](c3ccn(C)n3)C4)n(C)c(=O)c2c1 [Compound 340, 6-chloro-3-(((R)-1-(3,6-dimethyl-2-((1R,3R,5S)-3-(1-methyl-1H-pyrazol-3-yl)-8-azabicyclo[3.2.1]octan-8-yl)-4-oxo-3,4-dihydroquinazolin-8-yl)ethyl)amino)-N-(methylsulfonyl) picolinamide]",–,–,250 to 500 nM,≥ 5000 nM
